Measurements reported in patent US12286443B2, “Bycyclic JAK inhibitors and uses thereof” (Insilico Medicine IP Limited, priority 2019, dated 2025).

Tests used:
Type in all cases: biochemical
[1] = target: T1, JAK1 (Homo sapiens, UniProt P23458); test: Inhibition of JAK1 kinase, LANCE Ultra TR-FRET assay; details: 2 nM JAK1, 2x ATP 76 μM, 15 min pre-incubation, 90 min reaction, 23° C.
T1 construct: purchased Invitrogen PV4775
Procedure: (§1) Exemplary compounds were assayed to determine potency in inhibiting activity of JAK1-3 and TYK2 kinases by determining IC50 values.
(§2) The sources of test materials and equipment are as follows: JAK1 (Invitrogen, Cat. No PV4775), JAK2 (Invitrogen, Cat. No PV4210), JAK3 (Invitrogen, Cat. No PV4080), TYK2 (Invitrogen, Cat. No PR8440C), ATP (Sigma, Cat. No. A7699-1G), DMSO (Sigma, Cat. No. D2650), DTT (Sigma, Cat. No. 43815), 384 wells_compound plate (Greiner, Cat. No. 781280), 384 wells_assay plate (Perkin Elmer, Cat. No. 6007299), LANCE Ultra ULight™-JAK-1 peptide (Perkin Elmer, Cat. No. TRF0121), LANCET™ Eu-W1024 Anti-phosphotyrosine (PT66) (Perkin Elmer, Cat. No. AD0069), LANCET™ Detection Buffer(Perkin Elmer, Cat. No. CR97-100).
(§3) The concentrations of test compounds varied from 100 μM to 1.7 nM with 3-fold dilution, 11 points, in duplicates while the concentrations of the reference compound, Tofacitinib, varied from 1 μM to 0.017 nM with 3-fold dilution, 11 points, in duplicates.
(§4) The assay buffer contained 50 mM HEPES (pH 7.5), 0.01% Brij-35, 10 mM MgCl2, 1 mM EDTA, 2 mM DTT. Incubations were carried out at 23° C.
(§5) Prior to the assay, enzyme, peptide substrate and serially diluted test compounds were pre-incubated together in assay buffer (5 μL) for 15 minutes (peptide substrate concentration: 50 nM; JAK enzyme concentrations: 2 nM JAK1; […]; […] and 4 nM TYK2). And the assay was initiated by the addition of 5 μL assay buffer containing 2× final ATP concentration (these are the 2×ATP concentrations: 76 μM JAK1; 24 μM JAK2; 8 μM JAK3 and 30 μM TYK2). Following the 90-minute incubation, antibody conjugated with Eu is dissolved in detection buffer to add into wells and then incubated for 60 minutes. The 10 μL detection buffer contains EDTA to stop the enzymatic reaction. The plate is analyzed by Perkin Elmer Envision on TR-FRET mode. The high ratio of 665/615 represents no inhibition of kinase reaction while the low ratio of 665/615 represents complete inhibition of kinase reaction.
(§6) Curves are fit by XLFIT5 as inhibition rate % vs. log [compound concentration] using 4 parameters logistic model 205.
(§7) In the table, “A” indicates an IC50 of less than 100 nM, “B” indicates an IC50 range from 100 nM to 500 nM; “C” indicates an IC50 range from 500 nM to 2 μM; and “D” indicates an IC50 greater than 2 μM. Also, “na” indicates data is not available.

[2] = target: T2, JAK2 (Homo sapiens, UniProt O60674); test: Inhibition of JAK2 kinase, LANCE Ultra TR-FRET assay; details: 2x ATP 24 μM, 15 min pre-incubation, 90 min reaction, 23° C.
T2 construct: purchased Invitrogen PV4210
T2 sequence (O60674 whole entry): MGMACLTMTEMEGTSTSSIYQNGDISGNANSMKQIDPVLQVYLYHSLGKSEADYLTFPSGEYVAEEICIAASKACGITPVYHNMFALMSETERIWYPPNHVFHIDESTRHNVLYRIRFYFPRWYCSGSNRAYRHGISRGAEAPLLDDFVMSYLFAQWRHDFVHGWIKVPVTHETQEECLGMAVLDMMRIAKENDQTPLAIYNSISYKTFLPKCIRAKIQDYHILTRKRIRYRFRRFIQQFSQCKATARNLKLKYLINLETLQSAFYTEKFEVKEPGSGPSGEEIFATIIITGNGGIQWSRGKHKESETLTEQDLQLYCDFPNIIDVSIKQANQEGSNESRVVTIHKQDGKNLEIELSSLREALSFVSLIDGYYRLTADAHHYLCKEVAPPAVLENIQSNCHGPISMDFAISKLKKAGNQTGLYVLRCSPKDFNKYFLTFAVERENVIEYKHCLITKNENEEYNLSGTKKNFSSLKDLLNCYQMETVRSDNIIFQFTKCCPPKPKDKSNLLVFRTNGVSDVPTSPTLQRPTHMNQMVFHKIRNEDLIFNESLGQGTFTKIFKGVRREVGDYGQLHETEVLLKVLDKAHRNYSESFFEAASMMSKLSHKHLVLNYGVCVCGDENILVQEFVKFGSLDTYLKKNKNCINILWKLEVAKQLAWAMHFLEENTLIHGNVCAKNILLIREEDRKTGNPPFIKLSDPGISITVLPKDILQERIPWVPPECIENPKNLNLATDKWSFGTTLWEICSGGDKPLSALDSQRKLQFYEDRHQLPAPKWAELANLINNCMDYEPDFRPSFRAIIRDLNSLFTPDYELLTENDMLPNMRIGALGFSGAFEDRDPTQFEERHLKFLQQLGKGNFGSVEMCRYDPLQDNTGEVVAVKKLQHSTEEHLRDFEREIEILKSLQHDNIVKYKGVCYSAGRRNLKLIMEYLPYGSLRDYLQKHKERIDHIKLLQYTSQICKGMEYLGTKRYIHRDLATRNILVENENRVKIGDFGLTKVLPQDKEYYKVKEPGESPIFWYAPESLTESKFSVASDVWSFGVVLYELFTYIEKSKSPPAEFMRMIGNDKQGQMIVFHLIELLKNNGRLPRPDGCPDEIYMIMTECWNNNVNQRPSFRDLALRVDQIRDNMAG
Procedure: as §1, §2, §3, §4, §5, §6, §7

[3] = target: T3, JAK3 (Homo sapiens, UniProt P52333); test: Inhibition of JAK3 kinase, LANCE Ultra TR-FRET assay; details: 2x ATP 8 μM, 15 min pre-incubation, 90 min reaction, 23° C.
T3 construct: purchased Invitrogen PV4080
T3 sequence (P52333 1-1124): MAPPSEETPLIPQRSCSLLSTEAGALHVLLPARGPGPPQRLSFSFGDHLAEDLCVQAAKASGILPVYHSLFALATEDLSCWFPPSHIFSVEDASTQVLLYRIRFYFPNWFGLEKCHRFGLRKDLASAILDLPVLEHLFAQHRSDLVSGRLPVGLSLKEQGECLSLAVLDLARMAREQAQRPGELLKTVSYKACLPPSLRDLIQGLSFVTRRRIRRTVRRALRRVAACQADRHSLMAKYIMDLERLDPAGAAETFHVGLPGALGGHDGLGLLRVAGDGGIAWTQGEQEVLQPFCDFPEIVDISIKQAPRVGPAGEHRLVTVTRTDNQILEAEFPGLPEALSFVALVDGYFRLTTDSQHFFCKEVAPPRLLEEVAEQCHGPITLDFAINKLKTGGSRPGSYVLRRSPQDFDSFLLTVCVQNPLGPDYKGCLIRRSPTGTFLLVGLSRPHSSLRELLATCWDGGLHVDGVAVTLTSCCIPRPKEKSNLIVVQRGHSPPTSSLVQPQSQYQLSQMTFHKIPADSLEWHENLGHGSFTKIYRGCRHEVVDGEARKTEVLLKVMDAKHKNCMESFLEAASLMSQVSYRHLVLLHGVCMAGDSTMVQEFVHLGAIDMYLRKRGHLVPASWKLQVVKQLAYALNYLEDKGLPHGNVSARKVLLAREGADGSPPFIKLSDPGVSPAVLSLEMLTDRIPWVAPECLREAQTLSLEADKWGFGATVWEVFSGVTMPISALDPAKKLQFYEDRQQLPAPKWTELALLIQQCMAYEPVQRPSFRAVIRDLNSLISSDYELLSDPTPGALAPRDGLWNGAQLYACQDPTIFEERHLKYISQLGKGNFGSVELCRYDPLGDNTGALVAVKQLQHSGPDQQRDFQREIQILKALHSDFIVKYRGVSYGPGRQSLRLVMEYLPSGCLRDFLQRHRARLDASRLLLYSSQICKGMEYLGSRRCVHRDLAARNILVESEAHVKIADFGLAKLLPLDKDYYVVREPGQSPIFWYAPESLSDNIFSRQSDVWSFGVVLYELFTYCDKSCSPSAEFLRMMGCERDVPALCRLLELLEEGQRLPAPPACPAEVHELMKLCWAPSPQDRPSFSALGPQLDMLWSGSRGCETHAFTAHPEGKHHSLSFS
Procedure: as §1, §2, §3, §4, §5, §6, §7

[4] = target: T4, TYK2 (Homo sapiens, UniProt P29597); test: Inhibition of TYK2 kinase, LANCE Ultra TR-FRET assay; details: 4 nM TYK2, 2x ATP 30 μM, 15 min pre-incubation, 90 min reaction, 23° C., read-out: tyk IC50
T4 construct: purchased Invitrogen PR8440C
T4 sequence (P29597 whole entry): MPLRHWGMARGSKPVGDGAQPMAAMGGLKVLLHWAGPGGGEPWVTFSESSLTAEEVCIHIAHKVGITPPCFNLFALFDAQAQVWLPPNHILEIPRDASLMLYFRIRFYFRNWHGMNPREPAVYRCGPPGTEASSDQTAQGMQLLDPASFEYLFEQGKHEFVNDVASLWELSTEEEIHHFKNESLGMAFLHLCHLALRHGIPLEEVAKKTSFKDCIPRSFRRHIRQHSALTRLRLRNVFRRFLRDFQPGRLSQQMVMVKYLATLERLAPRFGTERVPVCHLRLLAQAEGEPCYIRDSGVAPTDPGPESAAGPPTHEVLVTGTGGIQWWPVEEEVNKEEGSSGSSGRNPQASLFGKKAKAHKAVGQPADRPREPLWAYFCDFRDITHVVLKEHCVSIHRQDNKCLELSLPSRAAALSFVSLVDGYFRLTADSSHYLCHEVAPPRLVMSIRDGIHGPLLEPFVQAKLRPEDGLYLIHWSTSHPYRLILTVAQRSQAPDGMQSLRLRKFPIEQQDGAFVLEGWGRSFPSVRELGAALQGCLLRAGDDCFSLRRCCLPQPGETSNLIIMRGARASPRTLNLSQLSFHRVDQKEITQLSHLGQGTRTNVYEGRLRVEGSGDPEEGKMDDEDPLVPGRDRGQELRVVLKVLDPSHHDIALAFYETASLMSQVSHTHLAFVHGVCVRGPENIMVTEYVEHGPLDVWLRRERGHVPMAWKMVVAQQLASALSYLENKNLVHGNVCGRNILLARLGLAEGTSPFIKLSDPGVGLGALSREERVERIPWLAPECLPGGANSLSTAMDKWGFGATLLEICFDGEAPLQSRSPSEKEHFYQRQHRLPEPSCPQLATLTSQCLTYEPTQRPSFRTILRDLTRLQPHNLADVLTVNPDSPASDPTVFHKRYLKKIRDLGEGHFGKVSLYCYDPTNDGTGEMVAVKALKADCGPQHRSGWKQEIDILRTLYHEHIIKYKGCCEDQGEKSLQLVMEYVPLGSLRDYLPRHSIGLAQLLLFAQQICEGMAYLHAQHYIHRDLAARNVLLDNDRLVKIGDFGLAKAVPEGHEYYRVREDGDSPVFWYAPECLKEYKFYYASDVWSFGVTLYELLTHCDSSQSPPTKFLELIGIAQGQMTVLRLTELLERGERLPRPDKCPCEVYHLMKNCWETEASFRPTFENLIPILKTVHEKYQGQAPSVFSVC
Procedure: as §1, §2, §3, §4, §5, §6, §7

T1 sequence (P23458 whole entry): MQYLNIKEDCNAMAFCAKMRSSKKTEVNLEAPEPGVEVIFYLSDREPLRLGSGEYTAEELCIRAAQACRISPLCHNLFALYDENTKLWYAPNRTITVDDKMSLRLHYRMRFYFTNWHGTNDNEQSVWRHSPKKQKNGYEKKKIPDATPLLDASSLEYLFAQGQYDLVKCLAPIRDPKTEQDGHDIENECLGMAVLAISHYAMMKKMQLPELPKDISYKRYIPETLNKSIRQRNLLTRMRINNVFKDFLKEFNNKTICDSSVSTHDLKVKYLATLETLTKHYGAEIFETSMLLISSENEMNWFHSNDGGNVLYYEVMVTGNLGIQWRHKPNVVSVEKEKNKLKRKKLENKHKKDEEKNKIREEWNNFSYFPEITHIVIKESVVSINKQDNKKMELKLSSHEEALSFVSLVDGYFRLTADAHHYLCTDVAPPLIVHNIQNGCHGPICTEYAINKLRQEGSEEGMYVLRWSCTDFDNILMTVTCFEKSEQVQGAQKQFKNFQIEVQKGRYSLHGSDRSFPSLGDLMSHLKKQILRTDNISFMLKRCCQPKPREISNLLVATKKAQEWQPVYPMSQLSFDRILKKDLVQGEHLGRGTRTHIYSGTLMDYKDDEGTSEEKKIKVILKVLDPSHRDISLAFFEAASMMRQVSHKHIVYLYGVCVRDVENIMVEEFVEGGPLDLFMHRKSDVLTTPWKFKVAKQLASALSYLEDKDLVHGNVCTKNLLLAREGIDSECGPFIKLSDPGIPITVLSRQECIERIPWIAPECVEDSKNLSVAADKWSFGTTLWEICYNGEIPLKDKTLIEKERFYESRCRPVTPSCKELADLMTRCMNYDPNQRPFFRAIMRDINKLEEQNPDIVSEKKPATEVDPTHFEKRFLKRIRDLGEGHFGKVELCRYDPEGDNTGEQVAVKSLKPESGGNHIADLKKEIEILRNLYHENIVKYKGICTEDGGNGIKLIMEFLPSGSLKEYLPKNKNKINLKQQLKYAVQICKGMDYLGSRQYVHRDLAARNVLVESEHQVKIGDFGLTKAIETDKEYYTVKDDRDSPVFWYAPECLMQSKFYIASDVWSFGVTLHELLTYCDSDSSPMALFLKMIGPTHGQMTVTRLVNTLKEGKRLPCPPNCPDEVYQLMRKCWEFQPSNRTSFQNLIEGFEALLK

IC50 [1] [nM] | IC50 [2] [nM] | IC50 [3] [nM] | IC50 [4] [nM] | Compound
500 to 2000 | > 2000 | 500 to 2000 | > 2000 | Cn1nc(C(=O)N[C@H]2C[C@H](C(=O)NCCC(F)(F)F)C2)c2c1CCN(c1ncnc3[nH]ccc13)C2 [Compound 124]
100 to 500 | 100 to 500 | < 100 | > 2000 | O=C(NCCC1CCCC1)c1noc2c1CN(c1ncnc3[nH]ccc13)CC2 [Compound 158]
100 to 500 | 100 to 500 | 100 to 500 | > 2000 | CN(C)S(=O)(=O)CCNC(=O)c1noc2c1CN(c1ncnc3[nH]ccc13)CC2 [Compound 156]
500 to 2000 | 500 to 2000 | 100 to 500 | > 2000 | CS(=O)(=O)N1CCC(CNC(=O)c2noc3c2CN(c2ncnc4[nH]ccc24)CC3)C1 (centres unmarked) [Compound 166]
< 100 | 100 to 500 | < 100 | 500 to 2000 | Cn1nc(C(=O)NCCC(F)(F)F)c2c1CCN(c1ncnc3[nH]ccc13)C2 [Compound 107]
> 2000 | > 2000 | > 2000 | > 2000 | O=C(NCCN1CCC1)c1noc2c1CN(c1ncnc3[nH]ccc13)CC2 [Compound 152]
100 to 500 | 100 to 500 | < 100 | > 2000 | O=C(NCCCC1(O)CC1)c1noc2c1CN(c1ncnc3[nH]ccc13)CC2 [Compound 144]
100 to 500 | 500 to 2000 | 100 to 500 | > 2000 | O=C(NCCC(F)(F)F)c1noc2c1CN(c1ncnc3[nH]cnc13)CC2 [Compound 188]
500 to 2000 | > 2000 | 100 to 500 | > 2000 | O=C(NCCC(F)(F)F)c1nn(C2CCOCC2)c2c1CN(c1ncnc3[nH]ccc13)CC2 [Compound 118]
< 100 | 100 to 500 | < 100 | > 2000 | CNS(=O)(=O)CCNC(=O)c1noc2c1CN(c1ncnc3[nH]ccc13)CC2 [Compound 157]
100 to 500 | 500 to 2000 | 100 to 500 | > 2000 | CCS(=O)(=O)NC(=O)[C@H]1C[C@H](NC(=O)c2nn(C)c3c2CN(c2ncnc4[nH]ccc24)CC3)C1 [Compound 126]
500 to 2000 | > 2000 | 100 to 500 | > 2000 | CS(=O)(=O)N1CCCC1CCNC(=O)c1noc2c1CN(c1ncnc3[nH]ccc13)CC2 (centres unmarked) [Compound 164]
100 to 500 | 100 to 500 | 100 to 500 | > 2000 | CS(=O)(=O)C(CCNC(=O)c1noc2c1CN(c1ncnc3[nH]ccc13)CC2)C(F)(F)F (centres unmarked) [Compound 170]
100 to 500 | 100 to 500 | < 100 | > 2000 | O=C(NC[C@@H]1CC[C@@H]1O)c1noc2c1CN(c1ncnc3[nH]ccc13)CC2 (relative stereo) [Compound 150-2]
> 2000 | > 2000 | > 2000 | > 2000 | COC(=O)[C@H]1C[C@H](NC(=O)c2nn(C)c3c2CN(c2ncnc4[nH]ccc24)CC3)C1 [Compound 121]
500 to 2000 | 500 to 2000 | 100 to 500 | > 2000 | O=C(NCCC1(O)CC(F)(F)C1)c1noc2c1CN(c1ncnc3[nH]ccc13)CC2 [Compound 149]
> 2000 | > 2000 | 500 to 2000 | > 2000 | O=C(NCCC(F)(F)F)c1nn(C2CCNCC2)c2c1CN(c1ncnc3[nH]ccc13)CC2 [Compound 101]
100 to 500 | 500 to 2000 | 100 to 500 | > 2000 | O=C(NCCCC1(O)CC1)c1noc2c1CN(c1ncnc3[nH]ccc13)CC2 [Compound 145]
100 to 500 | 500 to 2000 | 100 to 500 | > 2000 | Cn1nc(C(=O)N[C@H]2C[C@H](C(=O)NS(C)(=O)=O)C2)c2c1CCN(c1ncnc3[nH]ccc13)C2 [Compound 125]
100 to 500 | 500 to 2000 | < 100 | > 2000 | CCn1nc(C(=O)NCCC(F)(F)F)c2c1CCN(c1ncnc3[nH]ccc13)C2 [Compound 112]
100 to 500 | 500 to 2000 | 500 to 2000 | > 2000 | O=C(NCCC(F)(F)F)n1ccc2c1CN(c1ncnc3[nH]ccc13)CC2 [Compound 132]
> 2000 | > 2000 | > 2000 | > 2000 | Cc1cnc(CCNC(=O)c2noc3c2CN(c2ncnc4[nH]ccc24)CC3)o1 [Compound 139]
< 100 | < 100 | < 100 | 500 to 2000 | O=C(NCC(CO)C(F)(F)F)c1noc2c1CN(c1ncnc3[nH]ccc13)CC2 (centres unmarked) [Compound 151]
500 to 2000 | > 2000 | 500 to 2000 | > 2000 | CN(C)C1CN(CCNC(=O)c2noc3c2CN(c2ncnc4[nH]ccc24)CC3)C1 [Compound 160]
500 to 2000 | > 2000 | 100 to 500 | > 2000 | O=C(NCCS(=O)(=O)N1CCCCC1)c1noc2c1CN(c1ncnc3[nH]ccc13)CC2 [Compound 136]
100 to 500 | 100 to 500 | < 100 | > 2000 | O=C(NCC1CC1)c1noc2c1CN(c1ncnc3[nH]ccc13)CC2 [Compound 180]
500 to 2000 | 500 to 2000 | 100 to 500 | > 2000 | CS(=O)(=O)N1CC(CNC(=O)c2noc3c2CN(c2ncnc4[nH]ccc24)CC3)C1 [Compound 168]
500 to 2000 | 500 to 2000 | 100 to 500 | > 2000 | CS(=O)(=O)N1CC(CCNC(=O)c2noc3c2CN(c2ncnc4[nH]ccc24)CC3)C1 [Compound 169]
100 to 500 | 100 to 500 | < 100 | 500 to 2000 | C=CCn1nc(C(=O)NCCC(F)(F)F)c2c1CCN(c1ncnc3[nH]ccc13)C2 [Compound 113]
